Test results taken from US10358446B2, “Bruton's tyrosine kinase inhibitors” (Zibo Biopolar Changsheng Pharmaceutical Co. Ltd., priority 2015, dated 2019).

target: BTK (Homo sapiens (Human), UniProt Q06187); assay: Btk kinase assay (HTRF); assay type: biochemical; details: [ATP]=80 μM, BTK=3.4 nM; read-out: BTK Inhibition
Procedure, shortened: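 HTRF kinase read-out (665/615 nm ratio, excitation 330 nm) after EDTA quench and 1 h detection incubation. Reaction: 3.4 nM BTK, ATP 80 μM, peptide substrate 1 μM, compound, HEPES pH 7.0 buffer, 1 h; IC50 derived using uninhibited and enzyme-free controls.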

Chain of BTK (Q06187 whole entry, species assumed): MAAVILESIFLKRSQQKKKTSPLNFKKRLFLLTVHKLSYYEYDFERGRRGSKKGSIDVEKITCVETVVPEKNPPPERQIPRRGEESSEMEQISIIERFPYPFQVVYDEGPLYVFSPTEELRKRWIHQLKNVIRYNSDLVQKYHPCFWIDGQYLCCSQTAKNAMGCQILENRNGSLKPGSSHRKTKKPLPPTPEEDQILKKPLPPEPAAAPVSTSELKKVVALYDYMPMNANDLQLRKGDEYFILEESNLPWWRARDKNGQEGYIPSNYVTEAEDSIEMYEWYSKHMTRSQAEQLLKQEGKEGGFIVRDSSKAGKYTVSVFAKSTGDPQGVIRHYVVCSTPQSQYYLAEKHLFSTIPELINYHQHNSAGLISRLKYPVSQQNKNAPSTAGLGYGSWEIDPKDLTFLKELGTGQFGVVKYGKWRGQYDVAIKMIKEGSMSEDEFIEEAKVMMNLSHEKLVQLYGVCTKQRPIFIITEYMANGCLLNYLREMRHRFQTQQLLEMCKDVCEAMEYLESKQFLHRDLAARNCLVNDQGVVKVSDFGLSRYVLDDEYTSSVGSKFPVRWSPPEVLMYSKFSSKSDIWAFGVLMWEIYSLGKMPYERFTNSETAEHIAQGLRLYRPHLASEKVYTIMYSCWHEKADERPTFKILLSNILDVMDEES

IC50, 100 to 1000 nM:
C=CC(=O)N1CC[C@@H](n2c(=O)n(-c3ccc(OCc4ccc(Cl)cc4F)cc3)c3cnccc32)C1 [Example 244, (R)-1-(1-acryloylpyrrolidin-3-yl)-3-(4-((4-chloro-2-fluorobenzyl)oxy)phenyl)-1H-imidazo[4,5-c]pyridin-2(3H)-one]
CN(C/C=C/C(=O)N1CC[C@@H](n2c(=O)n(-c3ccc(Oc4ccccc4)cc3)c3cnccc32)C1)C1CC1 [Example 187, (R,E)-1-(1-(4-(cyclopropyl(methyl)amino)but-2-enoyl)pyrrolidin-3-yl)-3-(4-phenoxyphenyl)-1H-imidazo[4,5-c]pyridin-2(3H)-one]
C=CC(=O)N1CC[C@@H](n2c(=O)n(-c3ccc(OCc4ccc(C(F)(F)F)cc4)c(Cl)c3)c3cnccc32)C1 [Example 205, (R)-1-(1-acryloylpyrrolidin-3-yl)-3-(3-chloro-4-((4-(trifluoromethyl)benzyl)oxy)phenyl)-1H-imidazo[4,5-c]pyridin-2(3H)-one]
C=CC(=O)N1CC[C@@H](n2c(=O)n(-c3ccc(OCc4ccc(Cl)c(Cl)c4)cc3)c3cnccc32)C1 [Example 198, (R)-1-(1-acryloylpyrrolidin-3-yl)-3-(4-((3,4-dichlorobenzyl)oxy)phenyl)-1H-imidazo[4,5-c]pyridin-2(3H)-one]
C=CC(=O)Nc1cccc(-n2c(=O)n(-c3cccc(-c4ccc(C)cc4)c3)c3cnccc32)c1 [Example 272, N-(3-(3-(4′-methyl-[1,1′-biphenyl]-3-yl)-2-oxo-2,3-dihydro-1H-imidazo [4,5-c]pyridin-1-yl)phenyl)acrylamide]
C=CC(=O)N1CC[C@H](n2c(=O)n(-c3ccc(NC(=O)c4ccc(C)c(C(F)(F)F)c4)cc3)c3cnccc32)C1 [Example 269, (S)-N-(4-(1-(1-acryloylpyrrolidin-3-yl)-2-oxo-1H-imidazo[4,5-c]pyridin-3(2H)-yl)phenyl)-4-methyl-3-(trifluoromethyl)benzamide]
C=CC(=O)N1CC[C@@H](n2c(=O)n(-c3ccc(OCc4cc(F)cc(F)c4)c(Cl)c3)c3cnccc32)C1 [Example 207, (R)-1-(1-acryloylpyrrolidin-3-yl)-3-(3-chloro-4-((3,5-difluorobenzyl)oxy)phenyl)-1H-imidazo[4,5-c]pyridin-2(3H)-one]
C=CC(=O)N1CCC[C@@H](n2c(=O)n(-c3ccc(Oc4cccc(F)c4OC)cc3)c3cnccc32)C1 [Example 140, (R)-1-(1-acryloylpiperidin-3-yl)-3-(4-(3-fluoro-2-methoxyphenoxy)phenyl)-1H-imidazo[4,5-c]pyridin-2(3H)-one]
C=CC(=O)Nc1cccc(-n2c(=O)n(-c3ccc(C(=O)NCc4cccc(OC)c4)cc3)c3cnccc32)c1 [Example 252, 4-(1-(3-acrylamidophenyl)-2-oxo-1H-imidazo[4,5-c]pyridin-3(2H)-yl)-N-(3-methoxybenzyl)benzamide]
CC#CC(=O)N1CCC[C@@H]1Cn1c(=O)n(-c2ccc(Oc3cccc(OC)c3F)cc2)c2cncc(C)c21 [Example 169, (R)-1-((1-(but-2-ynoyl)pyrrolidin-2-yl)methyl)-3-(4-(2-fluoro-3-methoxyphenoxy)phenyl)-7-methyl-1H-imidazo[4,5-c]pyridin-2(3H)-one]
C=CC(=O)Nc1cccc(-n2c(=O)n(-c3ccc(Oc4ccc(Cl)c(F)c4)cc3)c3cnccc32)c1 [Example 160, N-(3-(3-(4-(4-chloro-3-fluorophenoxy)phenyl)-2-oxo-2,3-dihydro-1H-imidazo[4,5-c]pyridin-1-yl)phenyl)acrylamide]
C=CC(=O)Nc1cccc(-n2c(=O)n(-c3ccc(Oc4ccc(OC)c(F)c4)cc3)c3cnccc32)c1 [Example 161, N-(3-(3-(4-(3-fluoro-4-methoxyphenoxy)phenyl)-2-oxo-2,3-dihydro-1H-imidazo[4,5-c]pyridin-1-yl)phenyl)acrylamide]
C=CC(=O)Nc1cccc(-n2c(=O)n(-c3ccc(OCc4cccc(Cl)c4F)c(F)c3)c3cnccc32)c1 [Example 238, N-(3-(3-(4-((3-chloro-2-fluorobenzyl)oxy)-3-fluorophenyl)-2-oxo-2,3-dihydro-1H-imidazo[4,5-c]pyridin-1-yl)phenyl)acrylamide]
C=CC(=O)N1CC[C@@H](n2c(=O)n(-c3ccc(Oc4ccc(F)cc4)cc3)c3cnccc32)C1 [Example 81, (R)-1-(1-acryloylpyrrolidin-3-yl)-3-(4-(4-fluorophenoxy)phenyl)-1H-imidazo[4,5-c]pyridin-2(3H)-one]

IC50, ≥ 10000 nM:
O=C(/C=C/c1ccccc1)N1CC[C@@H](n2c(=O)n(-c3ccc(Oc4ccccc4)c(Cl)c3)c3cnccc32)C1 [Example 22, (R,E)-3-(3-chloro-4-phenoxyphenyl)-1-(1-cinnamoylpyrrolidin-3-yl)-1H-imidazo[4,5-c]pyridin-2(3H)-one]
C=CC(=O)N1CCC(n2c(=O)n(-c3ccc(Oc4ccccc4)cc3)c3cnccc32)CC1 [Example 30, 1-(1-acryloylpiperidin-4-yl)-3-(4-phenoxyphenyl)-1H-imidazo[4,5-c]pyridin-2(3H)-one]

IC50, ≤ 10 nM:
C=CC(=O)N1CCC[C@@H](n2c(=O)n(-c3ccc(Oc4cccc(OC)c4F)cc3)c3cncc(OC)c32)C1 [Example 166, (R)-1-(1-acryloylpiperidin-3-yl)-3-(4-(2-fluoro-3-methoxyphenoxy)phenyl)-7-methoxy-1H-imidazo[4,5-c]pyridin-2(3H)-one]

IC50, 1000 to 10000 nM:
C=CC(=O)N1CC[C@@H](n2c(=O)n(-c3ccc(OCc4ccc(F)c(F)c4)cc3)c3cnccc32)C1 [Example 214, (R)-1-(1-acryloylpyrrolidin-3-yl)-3-(4-((3,4-difluorobenzyl)oxy)phenyl)-1H-imidazo[4,5-c]pyridin-2(3H)-one]
C=CC(=O)Nc1cccc(-n2c(=O)n(-c3ccc(Oc4cccc(OC(F)(F)F)c4)cc3)c3cnccc32)c1 [Example 70, N-(3-(2-oxo-3-(4-(3-(trifluoromethoxy)phenoxy)phenyl)-2,3-dihydro-1H-imidazo[4,5-c]pyridin-1-yl)phenyl)acrylamide]
C=CC(=O)N1CC[C@@H](n2c(=O)n(-c3ccc(C(=O)N4CCOCC4)cc3)c3cnccc32)C1 [Example 250, (R)-1-(1-acryloylpyrrolidin-3-yl)-3-(4-(morpholine-4-carbonyl)phenyl)-1H-imidazo[4,5-c]pyridin-2(3H)-one]

IC50, 10 to 100 nM:
C=CC(=O)Nc1cccc(-n2c(=O)n(-c3ccc(Oc4cccc(C)c4)c(F)c3)c3cnccc32)c1 [Example 49, N-(3-(3-(3-fluoro-4-(m-tolyloxy)phenyl)-2-oxo-2,3-dihydro-1H-imidazo[4,5-c]pyridin-1-yl)phenyl)acrylamide]
C=CC(=O)N1CC[C@@H](n2c(=O)n(-c3ccc(Oc4cccc(OC)c4C)cc3)c3cnccc32)C1 [Example 143, (R)-1-(1-acryloylpyrrolidin-3-yl)-3-(4-(3-methoxy-2-methylphenoxy)phenyl)-1H-imidazo[4,5-c]pyridin-2(3H)-one]
C=CC(=O)Nc1cccc(-n2c(=O)n(-c3ccc(Oc4cccc(OC)c4)c(C)c3)c3cnccc32)c1 [Example 62, N-(3-(3-(4-(3-methoxyphenoxy)-3-methylphenyl)-2-oxo-2,3-dihydro-1H-imidazo[4,5-c]pyridin-1-yl)phenyl)acrylamide]
C=CC(=O)Nc1cccc(-n2c(=O)n(-c3cccc(NC(=O)c4ccc(C(C)(C)C)cc4)c3)c3cnccc32)c1 [Example 260, N-(3-(1-(3-acrylamidophenyl)-2-oxo-1H-imidazo[4,5-c]pyridin-3(2H)-yl)phenyl)-4-(tert-butyl)benzamide]
C=CC(=O)N1CCC[C@@H](n2c(=O)n(-c3ccc(Oc4cccc(C)c4)c(F)c3)c3cnccc32)C1 [Example 105, (R)-1-(1-acryloylpiperidin-3-yl)-3-(3-fluoro-4-(m-tolyloxy)phenyl)-1H-imidazo[4,5-c]pyridin-2(3H)-one]
C=CC(=O)N1CC[C@@H](n2c(=O)n(-c3ccc(Oc4cccc(OC)c4Cl)cc3)c3cnccc32)C1 [Example 135, (R)-1-(1-acryloylpyrrolidin-3-yl)-3-(4-(2-chloro-3-methoxyphenoxy)phenyl)-1H-imidazo[4,5-c]pyridin-2(3H)-one]
C=CC(=O)Nc1cccc(-n2c(=O)n(-c3cccc(OCc4ccccc4)c3)c3cnccc32)c1 [Example 233, N-(3-(3-(3-(benzyloxy)phenyl)-2-oxo-2,3-dihydro-1H-imidazo[4,5-c]pyridin-1-yl)phenyl)acrylamide]
C=CC(=O)N1CC[C@@H](n2c(=O)n(-c3cccc(Oc4cccc(OC5CC5)c4)c3)c3cnccc32)C1 [Example 56, (R)-1-(1-acryloylpyrrolidin-3-yl)-3-(3-(3-cyclopropoxyphenoxy)phenyl)-1H-imidazo[4,5-c]pyridin-2(3H)-one]
C=CC(=O)N1CCCC1Cn1c(=O)n(-c2ccc(Oc3ccccc3)cc2)c2cnccc21 (centres unmarked) [Example 21, 1-((1-acryloylpyrrolidin-2-yl)methyl)-3-(4-phenoxyphenyl)-1H-imidazo[4,5-c]pyridin-2(3H)-one]
C=CC(=O)N1CC[C@@H](n2c(=O)n(-c3ccc(Oc4cccc(C)c4)c(Cl)c3)c3cnccc32)C1 [Example 19, (R)-1-(1-acryloylpyrrolidin-3-yl)-3-(3-chloro-4-(m-tolyloxy)phenyl)-1H-imidazo[4,5-c]pyridin-2(3H)-one]
C=CC(=O)Nc1cccc(-n2c(=O)n(-c3ccc(OCc4ccccc4Cl)cc3)c3cnccc32)c1 [Example 231, N-(3-(3-(4-((2-chlorobenzyl)oxy)phenyl)-2-oxo-2,3-dihydro-1H-imidazo[4,5-c]pyridin-1-yl)phenyl)acrylamide]
C=CC(=O)N1CCC[C@@H](n2c(=O)n(-c3ccc(Oc4cccc(C)c4F)cc3)c3cnccc32)C1 [Example 141, (R)-1-(1-acryloylpiperidin-3-yl)-3-(4-(2-fluoro-3-methylphenoxy)phenyl)-1H-imidazo[4,5-c]pyridin-2(3H)-one]
